Active and inactive are the calls of the source.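 Rule for the calls: active = STAT3 activation with EC50 of 10 µM or lower; inactive = EC50 above 10 µM or none.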
These compounds were tested on U3A STAT3-luciferase reporter, IL-6 stimulated, luminescence (assay: STAT3 activators in IL-6-treated reporter cells, late-stage follow-up, counter-screen for STAT1 activator project, U3A cells, luminescence, dose response, powder samples (AID 434940)).

Row | SMILES | EC50
1 | Cc1nnc(SCC(=O)Nc2ccc(-c3nc4ccccc4s3)cc2)s1 | > 55.7 µM (inactive)
2 | O=C(/C=C/Nc1ccccc1F)c1ccc(Br)cc1 | > 55.7 µM (inactive)
3 | Cc1cc(-c2ccncc2)n2ncc(-c3ccccc3)c2n1 | > 55.7 µM (inactive)
4 | CC(=O)NC(=S)Nc1sc2c(c1C#N)CCCCC2 | > 55.7 µM (inactive)
5 | COc1ccc(-c2cc(C)nc3c(-c4ccccc4)cnn23)cc1 | > 55.7 µM (inactive)
6 | COc1ccc2[nH]c3c(c2c1)CCn1c-3nc2ccccc2c1=O | > 18.6 µM (inactive)
7 | COc1ccc(-c2csc(N3C(=O)CNC3=S)n2)cc1 | > 55.7 µM (inactive)
8 | CCN(CC)c1ccc2cc(C(=O)Nc3ccccn3)c(=O)oc2c1 | 0.804 µM
9 | O=C(Nc1nc2ccccc2s1)c1cc2ccccc2s1 | > 55.7 µM (inactive)
10 | Cc1ccc(C(=O)Nc2nc3ccccc3s2)s1 | > 55.7 µM (inactive)

Reference: PubChem BioAssay AID434940 (The Scripps Research Institute Molecular Screening Center, 2010)
